Laboratory results taken from EP4417607A1, “HETEROCYCLIC COMPOUND AS SOS1 INHIBITOR AND USES THEREOF” (Nanjing Zaiming Pharmaceutical Co., Ltd., priority 2021, dated 2023).

Experiments:
[1] = Caco-2 membrane permeability and transport; format: in vitro ADME; details: human, pH 7.4; for Papp A→B at 2 h, 10 µM: Caco-2, apical to basal; for Papp B→A at 2 h, 10 µM: Caco-2, basal to apical
Method: The membrane permeability and transport properties of the compound of the present disclosure were determined using the following method. • I. Experimental materials and instruments • 1. Caco-2 cells (ATCC) • 2. HEPES (Solarbio 804D049), penicillin/streptomycin (Solarbio 20200109), Trypsin/EDTA (Solarbio), and PBS (Solarbio 20200620) • 3. Fetal Bovine Serum (FBS) (Sigma WXBD0055V), lucifer yellow (Sigma MKCJ3738), and NaHCO3 (Sigma SLBZ4647) • 4. Hank's balanced salt solution (Gibco 2085528), non-essential amino acid (NEAA) (Gibco 2211548), and Trypsin/EDTA (Gibco 2120732) • 5. High glucose DMEM (Corning 20319014) • 6. HTS Transwell-96 Well Permeable (Corning, 3391) • 7. Resistance detector (Millipore, Millicell® ERS-2) • 8. Cellometer® Vision (Nexcelom Bioscience) • 9. Infinite 200 PRO microplate reader (Tecan, Infinite M200PRO) • 10. Positive control compound metoprolol (Sinopharm 100084-201403), erythromycin (MCE 84550), and cimetidine (Sinopharm 100158-201406) • 11. ABI QTrap 5500 liquid chromatography-mass spectrometry system • II. Procedures • 1. Caco-2 cell culture • 1) Preparation of transport buffer (HBSS containing 25 mM HEPES, pH 7.4): 5.958 g HEPES and 0.35 g NaHCOs were accurately weighed and dissolved in 900 mL pure water. 100 mL of 10× HBSS was then added and stirred well. The pH was adjusted to 7.4, and the mixture was filtered. • 2) Preparation of Caco-2 cell culture medium: FBS, penicillin, streptomycin, kanamycin, and NEAA were added to a high glucose DMEM (containing L-glutamine) culture medium to prepare a cell culture medium containing 10% FBS, 0.1 mg/mL streptomycin, 100 units penicillin, 0.6 µg/mL kanamycin, and 1× NEAA. • 3) Cells were cultured with a T-75 flask at 37 °C with 5% CO2 in an incubator. The culture medium was discarded when cell density reached 80-90%. The cells were rinsed with 5 mL PBS. 1.5 mL Trypsin/EDTA was added. The mixture was incubated at 37 °C for 5-10 min in an incubator until the cells shed like quicksand. Finally the Trypsin/EDTA was neutralized with a FBS-containing culture medium. • 4) The cell suspension was centrifuged at 120 × g for 10 min, and the supernatant was discarded. • 5) The cells were resuspended in a cell culture medium. The cell suspension was adjusted to a density of 6.86 × 10^5 cells/mL. • 2. Caco-2 cell inoculation • 1) 50 µL of culture medium was added to the Transwell chamber per well. 25 mL of culture medium was added to the lower chamber, and the chamber was preheated at 37 °C for 1 h with 5% CO2 in an incubator. • 2) 50 µL of the cell suspension was added to the preheated Transwell chamber per well at a final density of 2.4 × 10^5 cells/cm^2 • 3) The cells were cultured for 14-18 days. The culture medium was replaced every other day, and the culture medium was replaced within 48 h after the initial inoculation. The culture medium had to be replaced the day before the experiment. • 3. Evaluation of integrity of monolayer cell membrane • 1) The cells fused and differentiated after 14 days of culture and were ready for a transport experiment. • 2) The resistance of the monolayer membrane was measured using a resistance detector. […] Transport experiment • 1) A 10 mM stock solution of the compound of the present disclosure or the positive control compound was diluted with DMSO to give a 2 mM stock solution. The 2 mM stock solution was then diluted with the transport buffer to give a 10 µM working solution of the compound of the present disclosure or the positive control compound. • 2) The Caco-2 cell plate was taken out from the incubator, washed twice with the pre-heated transport buffer, and incubated at 37 °C in an incubator for 30 min. • 3) To determine the transport rate of the compound from the apical end to the basal end (A → B), 108 µL of the working solution of the compound was added to the Transwell chamber (apical end), while 8 µL of the sample was immediately taken from the apical end to 72 µL of the transport buffer. […]

[2] = tested on: DLD-1 cell subcutaneous tumor model; test: Growth inhibition in DLD-1 cell subcutaneous tumor model; format: in vivo, NU/NU mice; details: for TGI(%): 15 mg/kg, PO, BID, DLD-1 subcutaneous tumor, NU/NU mice
Excerpt: • Human colorectal cancer DLD-1 cell: ATCC, CCL-221 • RPMI-1640 culture medium: Gibco, REF: 61870-036 • Fetal bovine serum: Gibco, REF: 10091-148 • 0.25% trypsin-EDTA: Gibco, REF: 25200-072 • D-PBS (phosphate-buffered saline without calcium and magnesium ions): Hyclone, Cat. No.: SH30256.01 • Matrigel: Corning, Cat. No.: 356237
• Animal information: NU/NU mice, female, aged 6-7 weeks, 24-30 g, purchased from Beijing Vital River Biotechnology Co., Ltd. • Cell culture: human colon cancer cell strain DLD-1 was cultured in vitro under the conditions of RPMI-1640 (cell culture medium) added with 10% fetal bovine serum and 1% Pen Strep (Gibco penicillin-streptomycin diabody), and an incubator at 37 °C with 5% CO2. The cells were digested with a 0.25% trypsin-EDTA digestive solution twice a week for passaging as per conventional practice. When cell confluence was 80%-90% and a required amount was achieved, the cells were collected and counted. Cell inoculation: 0.1 mL/(containing 5×10^6) DLD-1 cell suspension (RPMI-1640: Matrigel, volume ratio 1: 1) was inoculated subcutaneously into the right lumbar dorsal part of each mouse. On day 6 after inoculation of the cells, the mice were randomly grouped and administrated based on tumor volume. The day when random grouping was performed was day 0.
Tumor diameters were measured twice weekly using a vernier caliper. The tumor volume was calculated using the following formula: V = 0.5a × b^2, where a and b represent the long diameter and short diameter of the tumor, respectively. Mouse body weight was measured twice weekly.
The anti-tumor therapeutic effect of the compound was evaluated by tumor growth inhibition rate TGI (%). TGI (%) = [(1 - (average tumor volume at the end of administration in a treatment group - average tumor volume at the start of administration of the treatment group)) / (average tumor volume at the end of treatment of the solvent control group - average tumor volume at the start of treatment of the solvent control group)] × 100%.

Structure (SMILES) | efflux ratio ([1]; Caco-2, Papp (B-A)/Papp (A-B)) | Papp A→B at 2 h, 10 µM [1] [×10⁻⁶ cm/s] | Papp B→A at 2 h, 10 µM [1] [×10⁻⁶ cm/s] | TGI(%) [2] [%] | efflux ratio at 2 h, 10 µM ([1]; Caco-2, Papp (B-A)/Papp (A-B)) | inhibitory effect on tumor growth ([2]; 15 mg/kg orally twice a day, P < 0.0001)
[2H][C@](C)(Nc1nc(C)nc2c(N3CCOCC3)c(=O)n(C3(CF)CC3)cc12)c1cccc(C(F)F)c1F [Example 55, (R)-4-((1-(3-(difluoromethyl)-2-fluorophenyl)ethyl-1-d)amino)-6-(1-(fluoromethyl)cyclopropyl)-2-methyl-8-morpholinylpyrido[4,3-d]pyrimidine-7(6H)-one] | 4.77 | 5.09 | 24.3 | 65.4 | – | –
Cc1nc(N[C@H](C)c2cccc(C(F)F)c2F)c2cn(C3(CF)CC3)c(=O)c(N3CCOC[C@@H]3C)c2n1 [Example 40, 4-(((R)-1-(3-(difluoromethyl)-2-fluorophenyl)ethyl)amino)-6-(1-(fluoromethyl)cyclopropyl)-2-methyl-8-((S)-3-methylmorpholine)pyrido[4,3-d]pyrimidine-7(6H)-one] | – | 2.1 | 27.6 | 59.0 | 13.1 | significant inhibitory effect on tumor growth
